The values that follow come from patent US20150216182A1, “COMPOSITIONS AND METHODS OF THE ATTRACTION AND REPULSION OF INSECTS” (Olfactor Laboratories, Inc., priority 2012, published 2015).

In assay [1] the test system is cpA neurons. In words: extracellular single-sensillum electrophysiology: inhibition of CO2-responsive (cpA) neuronal activity. The following applies: for Class: Table 10, single compounds, percent reduction in cpA activity compared to baseline; for Class (inhibitor class of the individual component): Inh = inhibitor.
For the next assay, the system named is female mosquitoes. Briefly: whole plant or invertebrate. The following applies: 2 h; for mortality at 200 µg/mL: read-out: % mortality with 0.2 mg/ml; for mortality at 2000 µg/mL: read-out: % mortality with 2 mg/ml.
The test system of assay [2] is cpA neurons. In words: extracellular single-sensillum electrophysiology: activation of cpA neuronal activity. The following applies: for Class: Table 6, single compounds, increase over baseline cpA neuronal activity.
The test system of the next assay is larvae. In words: larvicidal activity assay. The format is in vivo. The following applies: 24 hour exposure, dead larvae / total larvae; for pest or weed control at 0.25 %: 0.25% compound, read-out: % Lethality with 0.25% compound conc.; for pest or weed control at 100 ppm: 100 ppm compound, read-out: % Lethality at 100 ppm. As to the method:
A 6-well plate (Corning Life Sciences, Tewksbury, Mass.) is used to test a compound's larvicidal activity. […] After a 24 hour exposure, the number of dead larvae are counted and recorded.
The results are presented in Table 17 as % lethality (the number of dead larvae divided by the total number of larvae).

The mark [3] stands for this setting: Table 13, single component alone.
The mark [4] stands for this setting: Table 16, single component alone.

As to `COc1ncccc1C`, in the assay on cpA neurons [1] (1% concentration in paraffin oil), the “effect on CO2-receptor activity (FIG. 1)” value is “inhibitor”.

In the case of `CCOC(=O)CC(C)=O` [OLI0022, ethylacetoacetate], in the assay with female mosquitoes, the mortality at 200 µg/mL was 0% and the mortality at 2000 µg/mL came out at 0%. Moreover, the Class entry with cpA neurons [2] is “Moderate Activator (Moderate activators yield an increase in neuronal activity that is between 40 and 60 spk/sec over baseline neuronal activity)”. In addition, the “Comp A Class” value in the assay on cpA neurons [2] (Table 9, component A tested individually) is reported as “Mod”. Also, the “Comp B Class” value in the assay with cpA neurons [2] (Table 9, component B tested individually) is recorded as “Mod”. For the same molecule, in the assay on cpA neurons [2] (Table 15, single component alone, Mod Actv), the “Class B (activator class of the individual component)” value was “Mod”. As for `CCOC(=O)CC(C)O` (stereo not drawn) [OLI0042, ethyl 3-hydroxybutyrate], in the assay on female mosquitoes, the mortality at 200 µg/mL was 0% and the mortality at 2000 µg/mL stood at 0%. In addition, the Class entry in the assay with cpA neurons [2] is “Mild Activator (mild activators yield an increase in neuronal activity that is between 20 and 40 spk/sec over baseline neuronal activity)”. In the assay with larvae, the pest or weed control at 0.25 % is 0% and the pest or weed control at 100 ppm was 0%. Regarding `CCOC(=O)CCC(C)=O` [OLI0047, ethyllevulinate], the Class entry with cpA neurons [2] was “Mild Activator (mild activators yield an increase in neuronal activity that is between 20 and 40 spk/sec over baseline neuronal activity)”. Turning to `CCOCc1ccco1` [OLI0048, furfurylethylether], the Class entry in the assay with cpA neurons [2] is “Mild Activator (mild activators yield an increase in neuronal activity that is between 20 and 40 spk/sec over baseline neuronal activity)”. Take `CCCCCCC=O` [OLI0049, heptaldehyde]: in the assay with cpA neurons [2], the Class result was “Mild Activator (mild activators yield an increase in neuronal activity that is between 20 and 40 spk/sec over baseline neuronal activity)”. With `CCCC(=O)CCC` [OLI0050, heptanone-4], the Class entry in the assay with cpA neurons [2] is “Mild Activator (mild activators yield an increase in neuronal activity that is between 20 and 40 spk/sec over baseline neuronal activity)”. The same measure, in the same setting: the entry for `CCCCCC=O` [OLI0051, hexanal] is “Mild Activator (mild activators yield an increase in neuronal activity that is between 20 and 40 spk/sec over baseline neuronal activity)”.

For the molecule `CC(=O)OCC(C)C` [OLI0053, isobutyl acetate], the Class result in the assay on cpA neurons [2] is “Mild Activator (mild activators yield an increase in neuronal activity that is between 20 and 40 spk/sec over baseline neuronal activity)”.

In the case of `CCC(=O)OCC(C)C` [OLI0054, isobutyl propionate], in the assay with cpA neurons [2], the Class entry is “Mild Activator (mild activators yield an increase in neuronal activity that is between 20 and 40 spk/sec over baseline neuronal activity)”. The same measure, in the same setting: under `C/C=C/C(=O)OCC(C)C` [OLI0055, isobutyl trans-2-butenoate] stands “Mild Activator (mild activators yield an increase in neuronal activity that is between 20 and 40 spk/sec over baseline neuronal activity)”; under `CCCC(=O)OC(C)C` [OLI0056, isopropyl butyrate], “Mild Activator (mild activators yield an increase in neuronal activity that is between 20 and 40 spk/sec over baseline neuronal activity)”; under `C/C=C(\C)C(=O)OC(C)C` [OLI0057, isopropyl tiglate], “Mild Activator (mild activators yield an increase in neuronal activity that is between 20 and 40 spk/sec over baseline neuronal activity)”. On to `COC(=O)CC(C)C` [OLI0058, methyl isovalerate], for which the Class entry with cpA neurons [2] is “Mild Activator (mild activators yield an increase in neuronal activity that is between 20 and 40 spk/sec over baseline neuronal activity)”. Still for that read-out and setting: the entry for `Cc1cccc(C=O)c1` [OLI0060, m-tolualdehyde] is “Mild Activator (mild activators yield an increase in neuronal activity that is between 20 and 40 spk/sec over baseline neuronal activity)”; for `COc1ccccc1C=O` [OLI0061, o-anisaldehyde] it is “Mild Activator (mild activators yield an increase in neuronal activity that is between 20 and 40 spk/sec over baseline neuronal activity)”.

`CC(=O)OCC=C(C)C` [OLI0062, prenylacetate]: the Class entry in the assay with cpA neurons [2] is “Mild Activator (mild activators yield an increase in neuronal activity that is between 20 and 40 spk/sec over baseline neuronal activity)”. Same read-out and setting: under `CC(C)=C1CC[C@@H](C)CC1=O` [OLI0064, R-+ pulegone] stands “Mild Activator (mild activators yield an increase in neuronal activity that is between 20 and 40 spk/sec over baseline neuronal activity)”. In the case of `CC/C=C\CCOC(C)=O` [OLI0073, cis-3-hexenyl acetate], in the assay with female mosquitoes, the mortality at 200 µg/mL turned out to be 0% and the mortality at 2000 µg/mL was 0%. Besides, in the assay with cpA neurons [1], the Class result is “Moderate Inhibitor (moderate inhibitors (reducing activity by 40-60%))”. For the same molecule, in the assay on cpA neurons [1] (setting [3]), the “Class (inhibitor class of the individual component)” value was “Mod”. Also, in the assay on larvae, the pest or weed control at 0.25 % came to 95% and the pest or weed control at 100 ppm turned out to be 0%.

Consider `CCC(=O)OCCc1ccccc1` [OLI0076, Phenethyl propionate], for which, in the assay on female mosquitoes, the mortality at 200 µg/mL worked out at 0% and the mortality at 2000 µg/mL was found to be 100%. For the same molecule, the Class result with cpA neurons [1] is given as “Moderate Inhibitor (moderate inhibitors (reducing activity by 40-60%))”. Further, the “Class (inhibitor class of the individual component)” value with cpA neurons [1] (setting [3]) is reported as “Mod”. In addition, in the assay on cpA neurons [1] (setting [4]), the “Class (inhibitor class of the individual component)” value is “Mod”. Besides, in the assay on cpA neurons [1] (single compound), the “inhibitor class of single compound” value is “moderate inhibitor (40-60% reduction in neuronal activity as compared to baseline activity of the neuron)”. In the assay with larvae, the pest or weed control at 0.25 % is 100% and the pest or weed control at 100 ppm was 0%.

Regarding `CCC/C=C\CCOC(C)=O` [OLI0078, (Z)-hept-3-enylacetate], the Class entry in the assay with cpA neurons [1] is “Mild Inhibitor (mild inhibitors (reducing activity by 20-40%))”. The “Class (inhibitor class of the individual component)” value in the assay on cpA neurons [1] (setting [3]) and with cpA neurons [1] (setting [4]) was “Mild” in each case. On to `CCCCCCCCO` [OLI0080, 1-octanol], for which the Class entry in the assay on cpA neurons [1] is “Mild Inhibitor (mild inhibitors (reducing activity by 20-40%))”. The “Class (inhibitor class of the individual component)” value in the assay on cpA neurons [1] (setting [3]) and in the assay with cpA neurons [1] (setting [4]) was “Mild” in each case. On to `COC1=C(C)OC(C)C1=O` (stereo not drawn) [OLI0081, 2,5-dimethyl-4-methoxy-3(2H) furanone], for which the Class entry in the assay on cpA neurons [1] is “Mild Inhibitor (mild inhibitors (reducing activity by 20-40%))”.

On to `CCCC(=O)OC(C)(C)Cc1ccccc1` [OLI0082, alpha,alpha-dimethyl phenethyl butyrate], for which, in the assay with cpA neurons [1], the Class entry is listed as “Mild Inhibitor (mild inhibitors (reducing activity by 20-40%))”. In addition, the “Class (inhibitor class of the individual component)” value with cpA neurons [1] (setting [3]) was “Mild”. With `CC/C=C\CCOC(=O)CCC` [OLI0083, cis-3-hexenyl butyrate], in the assay on cpA neurons [1], the Class entry was “Mild Inhibitor (mild inhibitors (reducing activity by 20-40%))”. For the same molecule, in the assay with cpA neurons [1] (setting [3]), the “Class (inhibitor class of the individual component)” value was “Mild”. For `CCOC(=O)c1cccnc1` [OLI0085, ethyl nicotinate], the Class result with cpA neurons [1] was “Mild Inhibitor (mild inhibitors (reducing activity by 20-40%))”. On the same count and under the same terms, the entry for `CCCCCCC(=O)OCC` [OLI0086, Ethylheptanoate] is “Mild Inhibitor (mild inhibitors (reducing activity by 20-40%))”; for `CC12CCC(CC1)C(C)(C)O2` [OLI0087, Eucalyptol] it is “Mild Inhibitor (mild inhibitors (reducing activity by 20-40%))”. For `CC(=O)CC/C=C(\C)CCC=C(C)C` [OLI0089, Geranylacetone], the Class result in the assay with cpA neurons [1] is given as “Mild Inhibitor (mild inhibitors (reducing activity by 20-40%))”. Also, in the assay on cpA neurons [1] (setting [3]), the “Class (inhibitor class of the individual component)” value is listed as “Mild”. On to `CCCC(=O)OC/C=C(\C)CCC=C(C)C` [OLI0090, Geranylbutyrate], for which, in the assay on cpA neurons [1], the Class entry is given as “Mild Inhibitor (mild inhibitors (reducing activity by 20-40%))”.

On to `CCCCC1OC(=O)CC1C` (stereo not drawn) [OLI0094, whiskey lactone], for which the Class entry in the assay on cpA neurons [1] is given as “Mild Inhibitor (mild inhibitors (reducing activity by 20-40%))”. Consider `COc1ccc(C=O)cc1OC` [OLI0095, Veratraldehyde], for which, in the assay on cpA neurons [1], the Class result is “Mild Inhibitor (mild inhibitors (reducing activity by 20-40%))”. In addition, the “Class (inhibitor class of the individual component)” value in the assay on cpA neurons [1] (setting [3]) is given as “Mild”. For the molecule “dipropylenglykol-monomethyl ether [OLI0041]”, in the assay with cpA neurons [2], the Class result is “Mild Activator (mild activators yield an increase in neuronal activity that is between 20 and 40 spk/sec over baseline neuronal activity)”. Same read-out and setting: under “ethyl-2,3,5(6)-dimethyl pyrazine [OLI0043]” stands “Mild Activator (mild activators yield an increase in neuronal activity that is between 20 and 40 spk/sec over baseline neuronal activity)”.
